Reference: ChEMBL document CHEMBL1275597, “In vitro activity of the aminoglycoside antibiotic arbekacin against Acinetobacter baumannii-calcoaceticus isolated from war-wounded patients at Walter Reed Army Medical Center” (Antimicrob Agents Chemother, 2010)
Converted amounts (≈) assume the structure as drawn. The source made the active and inactive calls. The rule behind the calls is not given here.

Columns and labels:
[1] = tested on: Acinetobacter calcoaceticus/baumannii complex; assay: (§1) Antimicrobial activity against Acinetobacter baumannii-calcoaceticus obtained from war-wounded patient assessed as susceptible isolates; assay type: functional
[2] = as §1; assay type: functional, Acinetobacter calcoaceticus/baumannii complex
[3] = Antimicrobial activity against Acinetobacter baumannii-calcoaceticus obtained from war-wounded patient assessed as susceptible isolates in presence of beta-lactamase inhibitor Sulbactam; assay type: functional, Acinetobacter calcoaceticus/baumannii complex
[4] = Antimicrobial activity against Acinetobacter baumannii-calcoaceticus obtained from war-wounded patient assessed as zone of inhibition at 128 ug/ml by disk diffusion method; assay type: functional; details: Acinetobacter calcoaceticus/baumannii complex; read-out: IZ
[5] = Antimicrobial activity against Acinetobacter baumannii-calcoaceticus obtained from war-wounded patient; assay type: functional; details: Acinetobacter calcoaceticus/baumannii complex
[6] = Cmax in war-wounded patient infected with Acinetobacter baumannii-calcoacetius at 2 to 3 mg/kg/day; assay type: ADME, organism-based; details: human, in vivo
[7] = Antimicrobial activity against Acinetobacter baumannii-calcoaceticus […] in presence of imipenem; assay type: functional, Acinetobacter calcoaceticus/baumannii complex
[8] = Antimicrobial activity against Acinetobacter baumannii-calcoaceticus […] in presence of meropenem; assay type: functional, Acinetobacter calcoaceticus/baumannii complex
[9] = tested on: Acinetobacter calcoaceticus/baumannii complex; assay: Antimicrobial activity against Acinetobacter baumannii-calcoaceticus obtained from war-wounded patient assessed as susceptible isolates by tube dilution assay; assay type: functional
[10] = tested on: Homo sapiens; assay: Cmax in war-wounded patient infected with Acinetobacter baumannii-calcoacetius at 5 to 7 mg/kg/day; assay type: ADME, organism-based; details: in vivo

In the case of `COc1c(N2C[C@@H]3CCCN[C@@H]3C2)c(F)cc2c(=O)c(C(=O)O)cn(C3CC3)c12`, the Activity [1] is reported as “inactive”.
Work on `NCC[C@H](O)C(=O)N[C@@H]1C[C@H](N)[C@@H](O[C@H]2O[C@H](CN)[C@@H](O)[C@H](O)[C@H]2O)[C@H](O)[C@H]1O[C@H]1O[C@H](CO)[C@@H](O)[C@H](N)[C@H]1O` [AMIKACIN] yielded an Activity [2] of 59%.
Compound `CC1(C)S[C@@H]2[C@H](NC(=O)[C@H](N)c3ccccc3)C(=O)N2[C@H]1C(=O)O` [AMPICILLIN] has an Activity [3] of 67.3%.
Work on `NCC[C@H](O)C(=O)N[C@@H]1C[C@H](N)[C@@H](O[C@H]2O[C@H](CN)CC[C@H]2N)[C@H](O)[C@H]1O[C@H]1O[C@H](CO)[C@@H](O)[C@H](N)[C@H]1O` [ARBEKACIN] yielded a zone of inhibition at 128 µg/mL [4] of 13 mm, an MIC [5] of 2 µg/mL (≈ 3.62 µM) and a Cmax [6] of 20000 ng/mL. The Activity [2] was 86.5%.
`CO/N=C(\C(=O)N[C@@H]1C(=O)N2C(C(=O)[O-])=C(C[N+]3(C)CCCC3)CS[C@H]12)c1csc(N)n1` [CEFEPIME] gave an Activity [2] of 32.7%.
`CC(C)(O/N=C(\C(=O)N[C@@H]1C(=O)N2C(C(=O)[O-])=C(C[n+]3ccccc3)CS[C@H]12)c1csc(N)n1)C(=O)O` [CEFTAZIDIME] showed an Activity [2] of 25%.
Work on `O=C(O)c1cn(C2CC2)c2cc(N3CCNCC3)c(F)cc2c1=O` [CIPROFLOXACIN] yielded an Activity [2] of 14.5%.
In the case of `COc1c(N2CCNC(C)C2)c(F)cc2c(=O)c(C(=O)O)cn(C3CC3)c12` (stereo not drawn) [GATIFLOXACIN], the Activity [2] is reported as 27%.
For `C[C@@H](O)[C@H]1C(=O)N2C(C(=O)O)=C(SCCNC=N)C[C@H]12` [IMIPENEM ANHYDROUS], the “fractional inhibitory concentration index (FICI)” value [7] was 0.375 and the Activity [2] was 55%.
Work on `C[C@H]1COc2c(N3CCN(C)CC3)c(F)cc3c(=O)c(C(=O)O)cn1c23.C[C@H]1COc2c(N3CCN(C)CC3)c(F)cc3c(=O)c(C(=O)O)cn1c23.O` [LEVOFLOXACIN] yielded an Activity [2] of 20.5%.
In the case of `C[C@@H](O)[C@H]1C(=O)N2C(C(=O)O)=C(S[C@@H]3CN[C@H](C(=O)N(C)C)C3)[C@H](C)[C@H]12` [MEROPENEM], the Activity [2] is reported as 53.7% and the “fractional inhibitory concentration index (FICI)” value [8] is reported as 0.5.
In the case of `CN(C)c1ccc(O)c2c1C[C@H]1C[C@H]3[C@H](N(C)C)C(O)=C(C(N)=O)C(=O)[C@@]3(O)C(O)=C1C2=O` [MINOCYCLINE], the Activity [2] is reported as 92.6%.
Work on `CCN1CCN(C(=O)N[C@@H](C(=O)N[C@@H]2C(=O)N3[C@@H]2SC(C)(C)[C@@H]3C(=O)O)c2ccccc2)C(=O)C1=O` [PIPERACILLIN] yielded an Activity [2] of 9.8%.
`NC[C@H]1O[C@H](O[C@H]2[C@H](O)[C@@H](O[C@H]3O[C@H](CO)[C@@H](O)[C@H](N)[C@H]3O)[C@H](N)C[C@@H]2N)[C@H](N)C[C@@H]1O` [TOBRAMYCIN] showed an Activity [2] of 56%.
Compound COLISTIN has an Activity [9] of 100%.
With GENTAMICIN [listing 1 of 2 here] the Cmax [10] was < 4000 ng/mL.
In the case of GENTAMICIN [listing 2 of 2 here], the Activity [1] is reported as 14.5%.
For POLYMYXIN B, the Activity [9] was 100%.
